Data on two molecules can be found in patent US6693082B2, “Method of inhibiting metastatic dissemination using desmopressin” (priority 1999, dated 2004).

SMILES strings stand for the structures. Marks after values point to notes of the source that are not given here. Bounds are passed on as bounds.

The subject of data set [1] is murine mammary cancer cell line F3II (sarcomatoid carcinoma). The experiment in a line: Assay 1: inhibition of pulmonary metastatic colonization, i.v. inoculated F3II cells in BALB/c mice. The format is in vivo. The protocol:
(§1) Assay 1: Inhibition of Metastatic Colonization by the Application of Desmopressin 12-16 weeks old syngenic mice from the BALB/c strain weighing 25 g on average were used. As tumor cells, murine mammary cancer cell lines […] (sarcomatoid carcinoma) and LM3 (poorly differentiated adenocarcinoma) were used and kept in monolayer culture in minimum essential medium (MEM, Gibco, Grand Island, N.Y.), supplemented with 5% heat-inactivated bovine fetal serum, 2 mM glutamine and gentamicine 80 μg/ml ([…]. Farías, […]. Bal de Kier Joffé, Characterization of […], a Mammary Sarcomatoid Carcinoma Cell Line Originated From a Mouse Adenocarcinoma, J. Surg. Oncol. 1996, 62:288-97). In order to collect them, cells were trypsinized following conventional procedures. Desmopressin available from Ferring Pharmaceuticals (Malmo, Sweden) was used. Desmopressin as provided by Sigma Chemical Co. (St. Louis, Miss.) was also employed. Mice were inoculated with tumor cells at a concentration of 2×10^5 cells/0.3 ml MEM/mouse in the side vein of their tails, in accordance with the following schedule and using eight animals in each group: Coinjection with Desmopressin: tumor cells were preincubated in serum-free MEM and i.v. coinjected with desmopressin, at a final dose of 1 μg ([…] cells) or 2 μg (LM3 cells) per kg of body weight. Preincubation with Desmopressin: tumor cell suspensions were preincubated in serum-free MEM for 30-60 minutes at 37° C., in the presence of equivalent concentrations of desmopressin (80-160 ng/ml MEM). Then, cells were pelleted, resuspended in serum-free MEM and i.v. injected in the absence of desmopressin. Control: animals inoculated with tumor cells, with no desmopressin treatment. Three weeks after inoculation, lung weights were quantified and the number of pulmonary metastatic nodules was determined under the dissection microscope.

Data set [2] deals with murine mammary cancer cell line LM3 (poorly differentiated adenocarcinoma). The experiment in a line: Assay 1: inhibition of pulmonary metastatic colonization, i.v. inoculated LM3 cells in BALB/c mice. In kind it is in vivo. The protocol: as §1
For data set [3], the system named is breast carcinoma tumor cells F3II. The experiment in a line: Assay 2: extension of desmopressin action on experimental metastases (i.v. injection after tumor cell inoculation). The format is in vivo, mice. As to the method: Assay 2: Extension of Desmopressin Action on Experimental Metastases Four groups of ten mice each were organized, and were inoculated with breast carcinoma tumor cells […], in accordance with the above description for Assay 1. Thereafter they were intravenously injected with desmopressin in 0.1 ml of physiological solution at different times (1.5 hours, 3 hours and 24 hours) after the inoculation with tumor cells. Quantification of pulmonary weights took place three weeks after tumoral inoculation. The results are depicted in FIG. 1, in which they are expressed as media±error standard. Similar results were obtained by quantifying the number of pulmonary metastatic nodules per animal.

Data set [4] deals with F3II tumor cell suspensions. As to the kind of experiment: Assay 3A: cell survival of tumor cell suspensions, trypan blue. The format is cell-based, murine. The conditions noted are these: 80 ng/ml and 160 ng/ml; 1-5 hours at 37° C. in serum-free MEM. The protocol:
Assay 3: Cell Survival and Cytotoxicity In Vitro
A. F3II tumor cell suspensions were incubated at 37° C. in serum-free MEM: in the absence of desmopressin, in the presence of desmopressin, at concentrations of 80 ng/ml, in the presence of desmopressin, at concentrations of 160 ng/ml.
After 1-5 hours, cellular viability was assessed by the trypan blue technique. The results are shown in FIG. 2, where the absence of desmopressin (squares) and the presence of desmopressin are represented at concentrations of 80 ng/ml (triangles) and of 160 ng/ml (circles).

For data set [5], the system named is mammary carcinoma murine model F3II. The conditions noted are these: F3II cells in culture; 100 ng/ml at 1 μg/ml; cited from earlier work.
The conditions of data set [6]: mouse, in vivo; cited from earlier work.
The conditions of data set [7]: human, in vivo; cited from earlier work.
The conditions of data set [8]: in vivo, cited from earlier work.

Take `NC(=O)CC[C@@H]1NC(=O)[C@H](Cc2ccccc2)NC(=O)[C@H](Cc2ccc(O)cc2)NC(=O)CCSSC[C@@H](C(=O)N2CCC[C@H]2C(=O)N[C@H](CCCN=C(N)N)C(=O)NCC(N)=O)NC(=O)[C@H](CC(N)=O)NC1=O` [desmopressin, 1-deamino-8-D-arginine vasopressin]: the “Number of median pulmonary nodules (range)” value in data set [1] (F3II cells preincubated 30-60 minutes at 37° C. with desmopressin (80-160 ng/ml MEM), injected in absence of desmopressin, three weeks) is recorded as 19 (3-66); in data set [1] (F3II cells, i.v. coinjection with desmopressin, final dose 1 μg per kg, three weeks after inoculation, p < 0.01 vs control), 5 (0-12)*; in data set [2] (LM3 cells preincubated 30-60 minutes at 37° C. with desmopressin (80-160 ng/ml MEM), injected in absence of desmopressin, three weeks) it was 12 (8-37); in data set [2] (LM3 cells, i.v. coinjection with desmopressin, final dose 2 μg per kg, three weeks after inoculation, p < 0.01 vs control), 3 (1-18)*. Besides, the “Decrease in number of metastatic nodules” value in data set [1] (F3II cells, coinjection with desmopressin vs control) was “about 70%”; in data set [2] (LM3 cells, coinjection with desmopressin vs control), “about 70%”. Further, the “Incidence of metastatic nodules after tumor cell preincubation in vitro” value is reported as “did not lessen the incidence of metastatic nodules” in data set [1] (F3II cells, preincubation with equivalent concentrations of desmopressin) and “did not lessen the incidence of metastatic nodules” in data set [2] (LM3 cells, preincubation with equivalent concentrations of desmopressin). Besides, in data set [3] (animals treated with desmopressin), the Extrapulmonary metastases entry is on record as “No extrapulmonary metastases were found”. The “Inhibition of metastases (pulmonary weights, FIG. 1)” value in data set [3] (desmopressin i.v. 24 hours after inoculation of tumor cells, three weeks after inoculation) is recorded as “inhibition of metastases was also effected”. Besides, the “Cell viability of tumor cell suspensions (trypan blue, FIG. 2)” value in data set [4] is on record as “did not reduce cell viability”. In data set [5], the “Breast cancer cell proliferation” value is reported as “able to modulate”. In addition, in data set [5], the Urokinase secretion result was “able to modulate”. Moreover, the “Effects of high dose in mice” value in data set [6] is “no relevant effects”. Also, the Thrombotic risk in data set [7] is given as 0.0001%. In addition, the Half-life in data set [8] (iv, 20 ug) was not above 2.67 h. Further, the Drug eliminated unmetabolized in data set [8] is reported as 60%.
As to `NC(=O)CC[C@@H]1NC(=O)[C@H](Cc2ccccc2)NC(=O)[C@H](Cc2ccc(O)cc2)NC(=O)[C@@H](N)CSSC[C@@H](C(=O)N2CCC[C@H]2C(=O)N[C@@H](CCCN=C(N)N)C(=O)NCC(N)=O)NC(=O)[C@H](CC(N)=O)NC1=O` [vasopressin], in data set [5], the “Breast cancer cell proliferation” value is on record as “able to modulate” and the Urokinase secretion entry is reported as “able to modulate”.
